Laboratory results published in US10906904B2, “ADO-resistant cysteamine analogs and uses thereof” (HORIZON ORPHAN LLC, priority 2015, dated 2021).
Where two headings read alike, the source gives them in different places.

Experiments:
[1] = biological target: T1, human recombinant ADO (Homo sapiens, UniProt Q96SZ5); assay type: in vitro ADME
T1 sequence (Q96SZ5 1-270): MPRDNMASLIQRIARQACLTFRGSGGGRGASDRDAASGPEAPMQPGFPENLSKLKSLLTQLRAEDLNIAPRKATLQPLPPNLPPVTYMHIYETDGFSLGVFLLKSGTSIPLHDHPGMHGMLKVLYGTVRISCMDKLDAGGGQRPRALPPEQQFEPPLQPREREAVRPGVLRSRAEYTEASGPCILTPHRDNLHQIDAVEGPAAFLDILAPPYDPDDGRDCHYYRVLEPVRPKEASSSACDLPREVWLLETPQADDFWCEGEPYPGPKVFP
Method in brief: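 Test compound (15 mM) incubated with 60 μg/ml human recombinant ADO and 20 nM O2-sensitive fluorescent probe at 37 °C in sealed chamber. Initial rate of fluorescence increase (ex 380/em 650 nm) gave oxygen consumption, expressed relative to 15 mM cysteamine.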

[2] = in vivo; conditions: mouse, 10 mg
Description: (§1) Pharmacokinetic parameters of a test compound in a rodent species (mouse and/or rat) were determined by administering a test compound at 2 and 10 mg free base equivalents per kg via the intravenous and oral gavage route to groups of three animals per route.
(§2) Blood samples were taken at various times after administration, plasma prepared, and submitted to analysis for parent drug using a qualified LC-MS-MS assay. Pharmacokinetics parameters derived from the plasma analytical data were determined using non-compartmental analysis.

[3] = Cystine reactivity assay; parameters: Cystine Reactivity: unit not given here; conditions: for Cystine Reactivity: Tables 1-3; for reactivity with cystine compared to cysteamine (in words): text summary of Tables 1-3; for Cystine Reactivity Assay (30° C.) (%) Mean Value: percentage of 3 mM cysteamine
Method in brief: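 3 mM test compound incubated with 100 nM BODIPY FL L-cystine in phosphate buffer, pH 7.4, 30 °C; S–S cleavage relieves quenching, raising fluorescence. Rate taken as slope (RFU/min) of linear fit over time, expressed as percentage of 3 mM cysteamine.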

[4] = test system: cystinotic human fibroblasts; test: Cystine depletion assay; assay type: cell-based; conditions: for cystine depletion levels (in words): compared to cysteamine; for Cystine depletion: compound at 50 μM or 100 μM, Tables 1-3; for Emax: Homo sapiens, Fibroblast, 1 h; for Emax / Cystine Depletion (%): relative to cystine depletion by cysteamine (100%) at a similar concentration
Method in brief: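 Cystinotic human fibroblasts treated with compound at 50 μM or 100 μM for 60 min at 37° C. After homogenisation and acid protein precipitation, cystine measured by HILIC LC-MS/MS and normalised to protein. Depletion expressed as percent of that achieved by cysteamine at similar concentration.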

[5] = in vitro; conditions: rat
Description: (§3) Rat hepatocytes were used to model in vivo hepatic clearance of the compounds by the ADO enzyme. Briefly, a Hepatocyte Stability Assay was carried out using cryopreserved rat hepatocytes.

[6] = Rodent pharmacokinetic assay (mouse); conditions: for half-life / bioavailability: plasma, 10 mg; for bioavailability: oral
Description: as §1, §2

[7] = Rodent pharmacokinetic assay (rat); assay type: in vivo; conditions: 2 and 10 mg free base equivalents per kg, intravenous and oral gavage
Description: as §1, §2

[8] = test system: cryopreserved rat hepatocytes; test: Rat hepatocyte stability assay
Description: as §3

[9] = Cystine reactivity assay; conditions: Table 4
[10] = Dimethyl sulfide (DMS) detection in rat whole blood following oral compound administration; assay type: in vivo
Description: Male Sprague Dawley (SD) rats (200-250 g) were housed in cages under a 12 hour light/dark cycle with free access to food and water. Temperature and humidity were controlled according to UK Home Office regulations. For oral (po) administration, test compounds were formulated in water at a concentration of 30 mg/mL, to provide a dose of 150 mg/kg when administered orally in a 5 mL/kg dosing volume. Following compound or water (vehicle) administration to rats (n=15 per compound), terminal blood samples (>5 mL) were taken by cardiac puncture under CO2 at defined time-points post oral dosing (pre-dose, 0.25 hour, 0.5 hour, 1 hour and 2 hour). Blood was placed in sealed heparinized Eppendorf tubes on wet ice and stored at 4° C. prior to analyzing DMS levels by gas chromatography (GC).
For each sample of rat blood, 1 mL was added to an evacuated 20 mL GC-Headspace vial containing tetrahydrofuran (THF) internal standard. Headspace vials were sealed with a crimp cap and septum (to prevent the vaporization of volatile sulfur compounds into the open air) and thoroughly vortex mixed. All samples were processed using gas chromatography to measure DMS levels. In short, sulfur containing compounds were thermally liberated into the gas carrier stream and injected (1 μL) into the gas chromatography column (30 m×0.32 mm DB-624 1.8 μm). Under these conditions, the retention time for dimethyl sulfide (DMS) and THF internal standard were approximately 1.83 minutes and 3.82 minutes respectively.
For each analyzed blood sample, the ratio of DMS peak area to THF peak area was calculated. For the DMS calibration curve and assay linearity checks, this ratio was graphically plotted against the concentration of reference DMS standards (blank, 60 nM, 180 nM, 360 nM, 600 nM, 1200 nM, 1800 nM and 3000 nM). The concentration of DMS in each blood sample was calculated from the equation produced by this plot by linear regression analysis. […].

[11] = test system: St-HdhQ^111/111 cells; test: Glutamate-induced neuronal excitotoxicity assay; assay type: cell-based
Method in brief: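 Cells were pretreated with compound for 60 min at 33 °C in DMEM under 5% CO2, then exposed to 6 mM L-glutamate for 24 h. Viability was measured as ATP by CellTiter-Glo luminescence. Survival is expressed relative to 100 μM cysteamine, set as 100%.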

[12] = relative to 15 mM cysteamine, Tables 1-3
[13] = Table 4, read-out: Cystine Depletion (%)
[14] = Table 4, relative to 15 mM cysteamine
[15] = male, Sprague Dawley, rat, in vivo, po, 150 mg/kg, 1 h
[16] = male, Sprague Dawley, rat, in vivo, po, 150 mg/kg, 2 h
[17] = 2 and 10 mg free base equivalents per kg, intravenous and oral gavage

SCCN1CCCC1 [Compound 2b]
ADO metabolism [1, 12]: 4% | metabolism by ADO compared to cysteamine (in words) ([1]; text summary of Tables 1-3): significantly reduced metabolism by ADO compared to cysteamine | bioavailability [2]: 33% | half-life [2]: 24 min | Cystine Reactivity [3]: 12392 | reactivity with cystine compared to cysteamine (in words) [3]: increased reactivity with cystine compared to cysteamine | cystine depletion levels (in words) [4]: similar | Cystine depletion [4]: 99% | microsomal CLint ([5]; hepatocytes): 15700 µL/min/mg

SC1CCNCC1 [Compound 2c]
half-life [6]: 426 min | bioavailability [6]: 74% | metabolism by ADO compared to cysteamine (in words) [1]: significantly reduced metabolism by ADO compared to cysteamine | ADO metabolism ([1]; human, 15 mM): 2% | cystine depletion levels (in words) [4]: slightly decreased | Cystine depletion [4]: 73%

CN1CCC(S)CC1 [Compound 2d]
half-life [6]: 234 min | bioavailability [6]: 38% | metabolism by ADO compared to cysteamine (in words) [1]: significantly reduced metabolism by ADO compared to cysteamine | ADO metabolism ([1]; human, 15 mM): 1% | Cystine Reactivity [3]: 7332 | reactivity with cystine compared to cysteamine (in words) [3]: increased reactivity with cystine compared to cysteamine | bioavailability ([7]; plasma, read-out: Rat PK Bioavailability): 34% | half-life ([7]; plasma, read-out: Rat PK-Half life (converted)): 138 min | cystine depletion levels (in words) [4]: slightly decreased | Cystine depletion [4]: 79% | microsomal CLint at 3 μM ([5]; cryopreserved rat hepatocytes): 12600 µL/min/mg

CC(N)CS (centres unmarked) [Compound 3c]
metabolism by ADO compared to cysteamine (in words) [1]: significantly reduced metabolism by ADO compared to cysteamine | Cystine Reactivity [3]: 7733 | reactivity with cystine compared to cysteamine (in words) [3]: increased reactivity with cystine compared to cysteamine | Rat Hepatocytes CLint [8]: 29.5 mL/min/mg | Rat PK Bioavailability [7]: 23% | Rat PK-Half life [7]: 48 min | cystine depletion levels (in words) [4]: similar | Cystine depletion [4]: 97%

CC(=O)NCCS [Compound 17287]
ADO Metabolism Assay (%) Mean Value ([1]; human, 15 mM): <25% | Cystine Reactivity Assay (RT) (RFU) Mean Value [9]: <4000 RFU

SCCN1CCOCC1 [Compound 17328]
ADO Metabolism Assay (%) Mean Value ([1]; human, 15 mM): <25% | Cystine Reactivity Assay (RT) (RFU) Mean Value [9]: <4000 RFU | Emax [4, 13]: 13%

NCCCS [Compound 17329]
Cystine Reactivity Assay (RT) (RFU) Mean Value [9]: <4000 RFU | Cystine Depletion (%) ([4]; Table 4): 36%

CC(S)CN (centres unmarked) [Compound 17330]
Cystine Reactivity Assay (RT) (RFU) Mean Value [9]: 4000-9000 RFU

CC(N)CS (centres unmarked) [Compound 17515]
Cystine Reactivity Assay (RT) (RFU) Mean Value [9]: 4000-9000 RFU | Cystine Depletion (%) ([4]; Table 4): 97%

SCCN1CCCC1 [Compound 17518]
ADO Metabolism Assay (%) Mean Value [1, 14]: <25% | Cystine Reactivity Assay (RT) (RFU) Mean Value [9]: >9000 RFU | Emax [4, 13]: 99%

CN1CCC(S)CC1 [Compound 17521]
ADO Metabolism Assay (%) Mean Value ([1]; human, 15 mM): <25% | Cystine Reactivity Assay (30° C.) (%) Mean Value ([3]; Table 4): 50-90% | Cystine Reactivity Assay (RT) (RFU) Mean Value [9]: 4000-9000 RFU | Emax [4, 13]: 79%

SCCc1ccncc1 [Compound 17522]
ADO Metabolism Assay (%) Mean Value ([1]; human, 15 mM): <25% | Cystine Reactivity Assay (RT) (RFU) Mean Value [9]: <4000 RFU | Emax [4, 13]: 6%

CC(C)(S)CN [Compound 18782]
Mean DMS levels (nM) ± STD, Time 1 hr [10, 15]: <60 nM | Mean DMS levels (nM) ± STD, Time 2 hr [10, 16]: <60 nM | ADO Metabolism Assay (%) Mean Value ([1]; human, 15 mM): <25% | Cystine Reactivity Assay (RT) (RFU) Mean Value [9]: <4000 RFU | Emax [4, 13]: 32%

CC1(S)CCNCC1 [Compound 42341]
Mean DMS levels (nM) ± STD, Time 0.5 hr ([10]; male, Sprague Dawley, rat, in vivo, po, 150 mg/kg, 0.5 h): <60 nM | Mean DMS levels (nM) ± STD, Time 1 hr [10, 15]: <60 nM | Mean DMS levels (nM) ± STD, Time 2 hr [10, 16]: <60 nM | ADO Metabolism Assay (%) Mean Value ([1]; human, 15 mM): <25% | Cystine Reactivity Assay (30° C.) (%) Mean Value ([3]; Table 4): <50% | Cystine Reactivity Assay (30° C.) (%) Mean Value ([3]; Table 5): <50% | Emax [4, 13]: 81% | Emax ([4]; Table 5, read-out: Cystine Depletion (%) Mean Value): 83% | viability at 10 µM ([11]; STHdhQ111, 10 μM, 6 mM L-glutamate 24 hours, % of effect of 100 μM cysteamine, read-out: HdhQ^111/111 cell % survival (mean ± STD) Test Conc. 10 μM): 1 ± 10% | viability at 100 µM ([11]; STHdhQ111, 100 μM, 6 mM L-glutamate 24 hours, % of effect of 100 μM cysteamine, read-out: HdhQ^111/111 cell % survival (mean ± STD) Test Conc. 100 μM): 55 ± 21%

NCCS [Cysteamine]
Mean DMS levels (nM) ± STD, Time 0.5 hr ([10]; rat whole blood, 150 mg/kg po, 0.5 hr): 1097 ± 418 nM | Mean DMS levels (nM) ± STD, Time 1 hr ([10]; rat whole blood, 150 mg/kg po, 1 hr): 1162 ± 373 nM | Mean DMS levels (nM) ± STD, Time 2 hr ([10]; rat whole blood, 150 mg/kg po, 2 hr): 1437 ± 334 nM | Mean DMS levels (nM) ± STD, Time […] ([10]; rat whole blood, 150 mg/kg po, […]): 641 ± 324 nM | Mouse PK Bioavailability [6, 17]: 33% | Mouse PK-Half life [6, 17]: 2.4 h | ADO Metabolism Assay (%) Mean Value [1, 14]: >75% | ADO metabolism [1, 12]: 111% | Cystine Reactivity Assay (30° C.) (%) Mean Value ([3]; Table 4): >90% | Cystine Reactivity [3]: 6543 | Rat Hepatocytes CLint [8]: 33.7 mL/min/mg | Cystine Reactivity Assay (RT) (RFU) Mean Value [9]: 4000-9000 RFU | Rat PK Bioavailability [7]: 62% | Rat PK-Half life [7]: 30 min | Cystine Depletion (%) ([4]; Table 4): 100% | Cystine depletion [4]: 101% | Cystine depletion ( ) = disulfide efficacy ([4]; disulfide of the compound, 50 μM or 100 μM): (106%) | HdhQ^111/111 cell % survival (mean ± STD) Test Conc. 10 μM ([11]; 10 μM, 6 mM L-glutamate 24 hours, % of effect of 100 μM cysteamine): 20 ± 6% | HdhQ^111/111 cell % survival (mean ± STD) Test Conc. 100 μM ([11]; 100 μM, 6 mM L-glutamate 24 hours, % of effect of 100 μM cysteamine): 105 ± 13% | inhibition of glutamate-induced excitotoxicity / cell survival (in words) ([11]; St-HdhQ^111/111 cells): capable of inhibiting glutamate-induced excitotoxicity
